Test results: patent US7396837B2, “Antitumoral analogs of lamellarins” (Pharma Mar, S.A.U., priority 2002, dated 2008)
Entries after “also recorded” stand apart in the source; their conditions may differ. Like-named read-outs stand apart in the source and are kept apart here.

How the values were obtained:
human topoisomerase I = target: T1, human topoisomerase I (Homo sapiens, UniProt P11387); experiment: Topoisomerase I cleavage of radiolabeled 117-bp DNA fragment; format: biochemical; conditions: for topoisomerase I-mediated DNA cleavage sites / cleavage profile / stimulation of DNA cleavage by topoisomerase I (radiolabeled DNA substrate): 117-bp DNA restriction fragment 3' end-labeled; for topoisomerase I-mediated DNA cleavage sites / cleavage profile: sequencing-type polyacrylamide gels
T1 sequence (P11387 1-765): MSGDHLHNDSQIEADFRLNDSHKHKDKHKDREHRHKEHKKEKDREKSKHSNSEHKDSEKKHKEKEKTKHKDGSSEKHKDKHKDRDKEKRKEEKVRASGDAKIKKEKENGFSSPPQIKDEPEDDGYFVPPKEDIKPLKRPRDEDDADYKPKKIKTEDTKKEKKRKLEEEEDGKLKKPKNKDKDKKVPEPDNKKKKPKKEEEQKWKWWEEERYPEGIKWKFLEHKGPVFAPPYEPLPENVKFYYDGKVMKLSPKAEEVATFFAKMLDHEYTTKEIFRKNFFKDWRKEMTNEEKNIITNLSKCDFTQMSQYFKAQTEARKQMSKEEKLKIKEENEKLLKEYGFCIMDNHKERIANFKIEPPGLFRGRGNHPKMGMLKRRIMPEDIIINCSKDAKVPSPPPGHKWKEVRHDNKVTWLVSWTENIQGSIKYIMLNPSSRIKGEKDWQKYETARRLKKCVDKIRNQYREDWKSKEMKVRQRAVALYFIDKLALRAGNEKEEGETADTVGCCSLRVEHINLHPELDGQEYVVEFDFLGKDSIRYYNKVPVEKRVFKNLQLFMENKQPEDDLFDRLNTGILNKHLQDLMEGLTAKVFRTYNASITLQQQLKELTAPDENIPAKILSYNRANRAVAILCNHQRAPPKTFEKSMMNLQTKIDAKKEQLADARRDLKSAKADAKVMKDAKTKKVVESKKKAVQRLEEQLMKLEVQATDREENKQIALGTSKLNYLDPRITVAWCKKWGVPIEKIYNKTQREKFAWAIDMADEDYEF
Source text: Two assays, based on DNA relaxation and DNA cleavage (Bailly, C. DNA relaxation and cleavage assays to study topoisomerase I inhibitors. Methods Enzymol. 2001, 340, 610-623) were used evaluate the effects of the lamellarin analogs on the catalytic activity of human topoisomerase I.
A second assay, based on the cleavage of a radiolabeled DNA substrate by topoisomerase I, was used to confirm that the cationic lamellarin derivatives do effectively function as topoisomerase I poisons. A 117-bp DNA restriction fragment uniquely end-labeled at the 3′ end was subjected to cleavage by topoisomerase I in the presence of the different compounds and the resulting DNA cleavage products were resolved on sequencing-type polyacrylamide gels. The advantage of this assay is to detect the cleavage sites and to locate their positions with nucleotide resolution, providing thus information on the site selectivity of cleavage.

H-MEC-1 [1] = experiment: SRB colorimetric cell growth inhibition assay, H-MEC-1; format: cell-based; conditions: Homo sapiens, HMEC-1, H-MEC-1; for GI50: GI=growth inhibition, read-out: GI50 H-MEC-1; for IC (TGI): total growth inhibition (cytostatic effect), read-out: TGI H-MEC-1
How it was run: (§1)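 Growth inhibition (GI), total growth inhibition (TGI, cytostatic) and lethal concentration (LC, cytotoxic) come from an SRB-based colorimetric measure of growth and viability. Data are triplicate-well means ± SD.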

fertilised sea urchin = fertilised sea urchin assay; cited from earlier work
HeLa = experiment: SRB colorimetric cell growth inhibition assay, HeLa; format: cell-based; conditions: Homo sapiens, HeLa; for GI50: read-out: GI50 HELA; for CC50: read-out: LC50 HELA; for IC (TGI): read-out: TGI HELA
How it was run: (§2)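 Quantitation uses the sulforhodamine B reaction on cells exposed to sample for the whole assay period; results (mean ± SD, n = 3 wells) yield GI, TGI and LC.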

HeLa-APL = experiment: SRB colorimetric cell growth inhibition assay, HeLa-APL (aplidine resistant); format: cell-based; conditions: Homo sapiens; for GI50: read-out: GI50 HELA-APL; for CC50: read-out: LC50 HELA-APL; for IC (TGI): read-out: TGI HELA-APL
How it was run: as §2

[2] = SRB colorimetric cell growth inhibition assay, H-MEC-1; format: cell-based; conditions: human
How it was run: as §1

SKOV-3 = experiment: SRB colorimetric cell growth inhibition assay, SKOV-3; format: cell-based; conditions: Homo sapiens; for GI50: SK-OV-3, SKOV-3, GI=growth inhibition, read-out: GI50 SKOV-3; for IC (TGI): TGI=total growth inhibition (cytostatic effect), read-out: TGI SKOV-3
How it was run: (§3)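 Growth and viability quantified by sulforhodamine B staining in 96-well microplates. Triplicate wells give mean ± SD; derived endpoints are GI, TGI (cytostatic) and LC (cytotoxic).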

[3] = SRB colorimetric cell growth inhibition assay, H-MEC-1; format: cell-based; conditions: human, H-MEC-1, LC=cell killing (cytotoxic effect), read-out: LC50 H-MEC-1
How it was run: as §3

H-MEC-1 [4] = experiment: as above; format: cell-based; conditions: Homo sapiens, HMEC-1, H-MEC-1; for GI50: GI=growth inhibition; for IC (TGI): TGI=total growth inhibition (cytostatic effect), read-out: TGI H-MEC-1
How it was run: as §3

[5] = cell killing (cytotoxic effect)
[6] = total growth inhibition (cytostatic effect)
[7] = HELA-APL, cell killing (cytotoxic effect)
[8] = HELA-APL, total growth inhibition (cytostatic effect)
[9] = H-MEC-1, cell killing (cytotoxic effect), read-out: LC50 H-MEC-1
[10] = H-MEC-1 cells, H-MEC-1, cell killing (cytotoxic effect), read-out: LC50 H-MEC-1
[11] = SK-OV-3, SKOV-3, LC=cell killing (cytotoxic effect), read-out: LC50 SKOV-3

COc1cc(-c2c3c4cc(OC)c(O)cc4oc(=O)c3n3ccc4cc(O)c(OC)cc4c23)ccc1O [Compound 3, lamellarin D, reference compound]
topoisomerase I-mediated DNA cleavage sites / cleavage profile (human topoisomerase I; listed as LAM-D): T^↓G or C^↓G dinucleotides; also recorded: additional cleavage site at C^↓G73 | efficiency of topoisomerase I-mediated DNA cleavage at sites T↓G48 and T↓G81 (human topoisomerase I; compared with CPT): less efficient than CPT | GI50 (H-MEC-1 [1]): 113 nM | IC (TGI) (H-MEC-1 [1]): 3.14 µM | inhibition of cell division (fertilised sea urchin): inhibition of cell division

COc1cc(-c2c3n(c4c(=O)oc5cc(OC(=O)[C@H](C)NC(=O)[C@H](C)NC(=O)OC(C)(C)C)c(OC)cc5c24)CCc2cc(OC(=O)[C@H](C)NC(=O)[C@H](C)NC(=O)OC(C)(C)C)c(OC)cc2-3)ccc1OC(=O)[C@H](C)NC(=O)[C@H](C)NC(=O)OC(C)(C)C [Compound 7]
GI50 (HeLa): 830 nM | CC50 (HeLa): 4.42 µM | IC (TGI) (HeLa): 1.91 µM | GI50 (HeLa-APL): 1850 nM | CC50 (HeLa-APL): 7.24 µM | IC (TGI) (HeLa-APL): 3.66 µM | stimulation of DNA cleavage by topoisomerase I (radiolabeled DNA substrate) (human topoisomerase I): stimulate DNA cleavage by the enzyme

COc1cc(-c2c3n(c4c(=O)oc5cc(OC(=O)CCc6ccccc6)c(OC)cc5c24)CCc2cc(OC(=O)CCc4ccccc4)c(OC)cc2-3)ccc1OC(=O)CCc1ccccc1 [Compound 11]
GI50 (HeLa; GI=growth inhibition): 208 nM | CC50 (HeLa; [5]): 11.1 µM | IC (TGI) (HeLa; [6]): 1.35 µM | GI50 (HeLa-APL; HELA-APL, GI=growth inhibition): 5230 nM | CC50 (HeLa-APL; [7]): 11.1 µM | IC (TGI) (HeLa-APL; [8]): 11.1 µM

COc1cc(-c2c3c4cc(OC)c(OC(=O)[C@H](N)C(C)C)cc4oc(=O)c3n3ccc4cc(OC(=O)[C@H](N)C(C)C)c(OC)cc4c23)ccc1OC(=O)[C@H](N)C(C)C [Compound 17]
GI50 (HeLa; GI=growth inhibition): 109 nM | CC50 (HeLa; [5]): 0.878 µM | IC (TGI) (HeLa; [6]): 0.359 µM | GI50 (HeLa-APL; HELA-APL, GI=growth inhibition): 119 nM | CC50 (HeLa-APL; [7]): 1.85 µM | IC (TGI) (HeLa-APL; [8]): 0.353 µM | stimulation of DNA cleavage by topoisomerase I (radiolabeled DNA substrate) (human topoisomerase I): no difference between the (L) (36) and (D) (17) Val isomers

COc1cc(-c2c3n(c4c(=O)oc5cc(OC(=O)[C@@H](N)Cc6c[nH]c7ccccc67)c(OC)cc5c24)CCc2cc(OC(=O)[C@@H](N)Cc4c[nH]c5ccccc45)c(OC)cc2-3)ccc1OC(=O)[C@@H](N)Cc1c[nH]c2ccccc12 [Compound 24]
LC50 (concentration giving 50% net cell killing) [2, 9]: 5.97 µM | GI50 (H-MEC-1 [1]): 806 nM | IC (TGI) (H-MEC-1 [1]): 2.2 µM

COc1cc(-c2c3n(c4c(=O)oc5cc(OC(=O)[C@H](N)C(C)C)c(OC)cc5c24)CCc2cc(OC(=O)[C@H](N)C(C)C)c(OC)cc2-3)ccc1OC(=O)[C@H](N)C(C)C [Compound 32]
LC50 (concentration giving 50% net cell killing) [2]: 5.37 µM | GI50 (H-MEC-1 [1]): 276 nM | IC (TGI) (H-MEC-1 [1]): 0.723 µM

COc1cc(-c2c3c4cc(OC)c(OC(=O)[C@@H]5CCCN5)cc4oc(=O)c3n3ccc4cc(OC(=O)[C@@H]5CCCN5)c(OC)cc4c23)ccc1OC(=O)[C@@H]1CCCN1 [Compound 33]
topoisomerase I-mediated DNA cleavage sites / cleavage profile (human topoisomerase I): Cleavage profiles identical to that of 3 | LC50 (concentration giving 50% net cell killing) [2, 10]: 0.0463 µM | GI50 (H-MEC-1 [1]): 9.8 nM | IC (TGI) (H-MEC-1 [1]): 0.0214 µM

COc1cc(-c2c3n(c4c(=O)oc5cc(OC(=O)[C@H](NC(=O)OC(C)(C)C)C(C)C)c(OC)cc5c24)CCc2cc(OC(=O)[C@H](NC(=O)OC(C)(C)C)C(C)C)c(OC)cc2-3)ccc1OC(=O)[C@H](NC(=O)OC(C)(C)C)C(C)C [Compound 34]
LC50 (concentration giving 50% net cell killing) [2, 9]: 3.44 µM | GI50 (H-MEC-1 [1]): 244 nM | IC (TGI) (H-MEC-1 [1]): 0.653 µM

COc1cc(-c2c3c4cc(OC)c(OC(=O)[C@@H](N)C(C)C)cc4oc(=O)c3n3ccc4cc(OC(=O)[C@@H](N)C(C)C)c(OC)cc4c23)ccc1OC(=O)[C@@H](N)C(C)C [Compound 36]
stimulation of DNA cleavage by topoisomerase I (radiolabeled DNA substrate) (human topoisomerase I): no difference between the (L) (36) and (D) (17) Val isomers | topoisomerase I-mediated DNA cleavage sites / cleavage profile (human topoisomerase I): Cleavage profiles identical to that of 3 | LC50 (concentration giving 50% net cell killing) [2, 10]: 1.35 µM | GI50 (H-MEC-1 [1]): 2.65 nM | IC (TGI) (H-MEC-1 [1]): 0.0086 µM

COc1cc(-c2c3c4cc(OC)c(OC(=O)[C@@H](NC(=O)OC(C)(C)C)C(C)C)cc4oc(=O)c3n3ccc4cc(OC(=O)[C@@H](NC(=O)OC(C)(C)C)C(C)C)c(OC)cc4c23)ccc1OC(=O)[C@@H](NC(=O)OC(C)(C)C)C(C)C [Compound 38]
CC50 (SKOV-3; SK-OV-3, read-out: LC50 SKOV-3): 9.11 µM | GI50 (H-MEC-1 [1]): 80.9 nM | IC (TGI) (H-MEC-1 [1]): 0.911 µM | CC50 [3]: 9.11 µM

COc1cc(-c2c3c4cc(OC)c(OC(=O)[C@@H](N)CC(C)C)cc4oc(=O)c3n3ccc4cc(OC(=O)[C@@H](N)CC(C)C)c(OC)cc4c23)ccc1OC(=O)[C@@H](N)CC(C)C [Compound 39]
topoisomerase I-mediated DNA cleavage sites / cleavage profile (human topoisomerase I): Cleavage profiles identical to that of 3 | GI50 (SKOV-3): 63.4 nM | CC50 (SKOV-3; [11]): 8.47 µM | IC (TGI) (SKOV-3; SK-OV-3, SKOV-3): 8.47 µM | CC50 ([3]; H-MEC-1 cells): 8.47 µM | GI50 (H-MEC-1 [4]): 6.98 nM | IC (TGI) (H-MEC-1 [4]): 8.47 µM

COc1cc(-c2c3c4cc(OC)c(OC(=O)[C@H](C)N)cc4oc(=O)c3n3ccc4cc(OC(=O)[C@H](C)N)c(OC)cc4c23)ccc1OC(=O)[C@H](C)N [Compound 40]
GI50 (SKOV-3): 28.4 nM | CC50 (SKOV-3; [11]): 9.48 µM | IC (TGI) (SKOV-3; SK-OV-3, SKOV-3): 0.107 µM

COc1cc(-c2c3n(c4c(=O)oc5cc(O)c(OC)cc5c24)CCc2cc(O)c(OC)cc2-3)ccc1O [Compound 109]
GI50 (SKOV-3): 2490 nM | CC50 (SKOV-3; [11]): 19.9 µM | IC (TGI) (SKOV-3; SK-OV-3, SKOV-3): 11.8 µM | CC50 ([3]; H-MEC-1 cells): 19.9 µM | GI50 (H-MEC-1 [4]): 917 nM | IC (TGI) (H-MEC-1 [4]): 19.9 µM

COc1cc(-c2c3c4cc(OC)c(OC(=O)CCCCCN)cc4oc(=O)c3n3ccc4cc(OC(=O)CCCCCN)c(OC)cc4c23)ccc1OC(=O)CCCCCN [Compound 169]
GI50 (HeLa; GI=growth inhibition): 55.7 nM | CC50 (HeLa; [5]): 4.42 µM | IC (TGI) (HeLa; [6]): 1.39 µM | GI50 (HeLa-APL; HELA-APL, GI=growth inhibition): 70.5 nM | CC50 (HeLa-APL; [7]): 2.97 µM | IC (TGI) (HeLa-APL; [8]): 0.53 µM | stimulation of DNA cleavage by topoisomerase I (radiolabeled DNA substrate) (human topoisomerase I): stimulate DNA cleavage by the enzyme
